Assay results published in patent publication US20230355626A1, “INHIBITORS OF HUMAN IMMUNODEFICIENCY VIRUS REPLICATION” (VIIV HEALTHCARE UK (NO.5) LIMITED, priority 2020, published 2023).
pEC50: −log10 of the molar value.

What was measured:
recombinant NL4-3 virus = assay: HIV cell culture assay (antiviral activity, luciferase readout in infected MT-2 cells); format: cell-based; conditions: Human immunodeficiency virus 1, NL43, MT2
Procedure: HIV cell culture assay—MT-2 cells, 293T cells and the proviral DNA clone of NL4-3 virus were obtained from the NIH AIDS Research and Reference Reagent Program. MT-2 cells were propagated in RPMI 1640 media supplemented with 10% heat inactivated fetal bovine serum (FBS), 100 μg/ml penicillin G and up to 100 units/mL streptomycin. The 293T cells were propagated in DMEM media supplemented with 10% heat inactivated FBS, 100 μg/mL penicillin G and 100 μg/mL streptomycin. A recombinant NL4-3 proviral clone, in which a section of the nef gene was replaced with the Renilla luciferase gene, was used to make the reference virus used in these studies. The recombinant virus was prepared through transfection of the recombinant NL4-3 proviral clone into 293T cells using Transit-293 Transfection Reagent from Mirus Bio LLC (Madison, WI). Supernatant was harvested after 2-3 days and the amount of virus present was titered in MT-2 cells using luciferase enzyme activity as a marker by measuring luciferase enzyme activity. Luciferase was quantitated using the EnduRen Live Cell Substrate from Promega (Madison, WI). Antiviral activities of compounds toward the recombinant virus were quantified by measuring luciferase activity in MT-2 cells infected for 4-5 days with the recombinant virus in the presence of serial dilutions of the compound.
The 50% effective concentration (EC50) was calculated by using the exponential form of the median effect equation where (Fa)=1/[1+(ED50/drug conc.)m] (Johnson VA, Byington RT. Infectivity Assay. In Techniques in HIV Research. ed. Aldovini A, Walker BD. 71-76. New York: Stockton Press.1990). Curve fitting and analysis were performed with ActivityBase XE Runner software version 9.1.0.4 using model 203 (ID Business Solutions, LTD, Guildford, UK).

[1] = Compound cytotoxicity, XTT-based colorimetric assay; format: cell-based; conditions: human; uninfected MT2 cells, day 4, XTT assay
Procedure: Compound cytotoxicity and the corresponding CC50 values were determined using the same protocol as described in the antiviral assay except that uninfected cells were used. Cytotoxicity was assessed on day 4 in uninfected MT2 cells by using an XTT (2,3-bis[2-Methoxy-4-nitro-5-sulfophenyl]-2H-tetrazolium-5-carboxyanilide inner salt)-based colorimetric assay (Sigma-Aldrich, St Louis, Mo).

| Compound | pEC50 (recombinant NL4-3 virus) | CC50 at 4 day [1] |
| --- | --- | --- |
| Cn1nc(NS(C)(=O)=O)c2c(Cl)ccc(-n3c([C@H](Cc4cc(F)cc(F)c4)NC(=O)Cn4nc(C(F)F)c5c4C(F)(F)[C@@H]4C[C@H]54)nc4nc(OCCOCC(F)(F)C(F)(F)F)ccc4c3=O)c21 (atropisomer, axis not shown; (P)) [Example 20, N-((S)-1-((3P)-3-(4-chloro-1-methyl-3-(methylsulfonamido)-1H-indazol-7-yl)-4-oxo-7-(2-(2,2,3,3,3-pentafluoropropoxy)ethoxy)-3,4-dihydropyrido[2,3-d]pyrimidin-2-yl)-2-(3,5-difluorophenyl)ethyl)-2-((3bS,4aR)-3-(difluoromethyl)-5,5-difluoro-3b,4,4a,5-tetrahydro-1H-cyclopropa[3,4]cyclopenta[1,2-c]pyrazol-1-yl)acetamide] | 10.35 | > 100 nM |
| Cn1nc(NS(C)(=O)=O)c2c(Cl)ccc(-n3c([C@H](Cc4cc(F)cc(F)c4)NC(=O)Cn4nc(C(F)F)c5c4C(F)(F)[C@@H]4C[C@H]54)nc4nc(OC5CCC(F)(F)CC5)ccc4c3=O)c21 (atropisomer, axis not shown; (P)) [Example 35, N-((S)-1-((3P)-3-(4-chloro-1-methyl-3-(methylsulfonamido)-1H-indazol-7-yl)-7-((4,4-difluorocyclohexyl)oxy)-4-oxo-3,4-dihydropyrido[2,3-d]pyrimidin-2-yl)-2-(3,5-difluorophenyl)ethyl)-2-((3bS,4aR)-3-(difluoromethyl)-5,5-difluoro-3b,4,4a,5-tetrahydro-1H-cyclopropa[3,4]cyclopenta[1,2-c]pyrazol-1-yl)acetamide] | 10.27 | > 100 nM |
| Cn1nc(NS(C)(=O)=O)c2c(Cl)ccc(-n3c([C@H](Cc4cc(F)cc(F)c4)NC(=O)Cn4nc(C(F)F)c5c4C(F)(F)[C@@H]4C[C@H]54)nc4nc(OCCC(F)(F)C(F)(F)F)ccc4c3=O)c21 (atropisomer, axis not shown; (P)) [Example 19, N-((S)-1-((3P)-3-(4-chloro-1-methyl-3-(methylsulfonamido)-1H-indazol-7-yl)-4-oxo-7-(3,3,4,4,4-pentafluorobutoxy)-3,4-dihydropyrido[2,3-d]pyrimidin-2-yl)-2-(3,5-difluorophenyl)ethyl)-2-((3bS,4aR)-3-(difluoromethyl)-5,5-difluoro-3b,4,4a,5-tetrahydro-1H-cyclopropa[3,4]cyclopenta[1,2-c]pyrazol-1-yl)acetamide] | 10.36 | > 100 nM |
| Cn1nc(NS(C)(=O)=O)c2c(Cl)ccc(-n3c([C@H](Cc4cc(F)cc(F)c4)NC(=O)Cn4nc(C5CC5)c5c4C(F)(F)[C@@H]4C[C@H]54)nc4nc(OCC(F)(F)C(F)(F)F)ccc4c3=O)c21 (atropisomer, axis not shown; (P)) [Example 41, N-((S)-1-((3P, 3P)-3-(4-chloro-1-methyl-3-(methylsulfonamido)-1H-indazol-7-yl)-4-oxo-7-(2,2,3,3,3-pentafluoropropoxy)-3,4-dihydropyrido[2,3-d]pyrimidin-2-yl)-2-(3,5-difluorophenyl)ethyl)-2-((3bS,4aR)-3-cyclopropyl-5,5-difluoro-3b,4,4a,5-tetrahydro-1H-cyclopropa[3,4]cyclopenta[1,2-c]pyrazol-1-yl)acetamide] | 10.37 | > 100 nM |
| Cn1nc(NS(C)(=O)=O)c2c(Cl)ccc(-n3c([C@H](Cc4cc(F)cc(F)c4)NC(=O)Cn4nc(C(F)F)c5c4C(F)(F)[C@@H]4C[C@H]54)nc4nc(Oc5ccccc5F)ccc4c3=O)c21 (atropisomer, axis not shown; (P)) [Example 37, N-((S)-1-((3P)-3-(4-chloro-1-methyl-3-(methylsulfonamido)-1H-indazol-7-yl)-7-(2-fluorophenoxy)-4-oxo-3,4-dihydropyrido[2,3-d]pyrimidin-2-yl)-2-(3,5-difluorophenyl)ethyl)-2-((3bS,4aR)-3-(difluoromethyl)-5,5-difluoro-3b,4,4a,5-tetrahydro-1H-cyclopropa[3,4]cyclopenta[1,2-c]pyrazol-1-yl)acetamide] | 10.09 | > 100 nM |
| Cn1nc(NS(C)(=O)=O)c2c(Cl)ccc(-n3c([C@H](Cc4cc(F)cc(F)c4)NC(=O)Cn4nc(C(F)F)c5c4C(F)(F)[C@@H]4C[C@H]54)nc4nc(OCc5cccnc5)ccc4c3=O)c21 (atropisomer, axis not shown; (P)) [Example 3, N-[(1S)-1-[(3P)-3-(4-chloro-3-methanesulfonamido-1-methyl-1H-indazol-7-yl)-4-oxo-7-[(pyridin-3-yl)methoxy]-3H,4H-pyrido[2,3-d]pyrimidin-2-yl]-2-(3,5-difluorophenyl)ethyl]-2-[(2S,4R)-9-(difluoromethyl)-5,5-difluoro-7,8-diazatricyclo[4.3.0.0^2,^4]nona-1(6),8-dien-7-yl]acetamide] | 10.32 | > 100 nM |
| Cn1nc(NS(C)(=O)=O)c2c(Cl)ccc(-n3c([C@H](Cc4cc(F)cc(F)c4)NC(=O)Cn4nc(C(F)F)c5c4C(F)(F)[C@@H]4C[C@H]54)nc4nc(OC5CC(F)(F)C5)ccc4c3=O)c21 (atropisomer, axis not shown; (P)) [Example 30, N-[(1S)-1-[(3P)-3-(4-chloro-3-methanesulfonamido-1-methyl-1H-indazol-7-yl)-7-(3,3-difluorocyclobutoxy)-4-oxo-3H,4H-pyrido[2,3-d]pyrimidin-2-yl]-2-(3,5-difluorophenyl)ethyl]-2-[(2S,4R)-9-(difluoromethyl)-5,5-difluoro-7,8-diazatricyclo[4.3.0.0^2,^4]nona-1(6),8-dien-7-yl]acetamide] | 10.51 | > 500 nM |
| Cn1nc(COc2ccc3c(=O)n(-c4ccc(Cl)c5c(NS(C)(=O)=O)nn(C)c45)c([C@H](Cc4cc(F)cc(F)c4)NC(=O)Cn4nc(C(F)F)c5c4C(F)(F)[C@@H]4C[C@H]54)nc3n2)cc1C(F)(F)F (atropisomer, axis not shown; (P)) [Example 13, N-((S)-1-((3P)-3-(4-chloro-1-methyl-3-(methylsulfonamido)-1H-indazol-7-yl)-7-((1-methyl-5-(trifluoromethyl)-1H-pyrazol-3-yl)methoxy)-4-oxo-3,4-dihydropyrido[2,3-d]pyrimidin-2-yl)-2-(3,5-difluorophenyl)ethyl)-2-((3bS,4aR)-3-(difluoromethyl)-5,5-difluoro-3b,4,4a,5-tetrahydro-1H-cyclopropa[3,4]cyclopenta[1,2-c]pyrazol-1-yl)acetamide] | 10.24 | > 100 nM |
| Cc1cc(C)nc(COc2ccc3c(=O)n(-c4ccc(Cl)c5c(NS(C)(=O)=O)nn(C)c45)c([C@H](Cc4cc(F)cc(F)c4)NC(=O)Cn4nc(C(F)F)c5c4C(F)(F)[C@@H]4C[C@H]54)nc3n2)n1 (atropisomer, axis not shown; (P)) [Example 6, N-((S)-1-((3P,3P)-3-(4-chloro-1-methyl-3-(methylsulfonamido)-1H-indazol-7-yl)-7-((4,6-dimethylpyrimidin-2-yl)methoxy)-4-oxo-3,4-dihydropyrido[2,3-d]pyrimidin-2-yl)-2-(3,5-difluorophenyl)ethyl)-2-((3bS,4aR)-3-(difluoromethyl)-5,5-difluoro-3b,4,4a,5-tetrahydro-1H-cyclopropa[3,4]cyclopenta[1,2-c]pyrazol-1-yl)acetamide] | 10.44 | > 500 nM |
| Cn1nc(NS(C)(=O)=O)c2c(Cl)ccc(-n3c([C@H](Cc4cc(F)cc(F)c4)NC(=O)Cn4nc(C(F)F)c5c4C(F)(F)[C@@H]4C[C@H]54)nc4nc(OCCNCC(F)(F)F)ccc4c3=O)c21 (atropisomer, axis not shown; (P)) [Example 25, N-((S)-1-((3P)-3-(4-chloro-1-methyl-3-(methylsulfonamido)-1H-indazol-7-yl)-4-oxo-7-(2-((2,2,2-trifluoroethyl)amino)ethoxy)-3,4-dihydropyrido[2,3-d]pyrimidin-2-yl)-2-(3,5-difluorophenyl)ethyl)-2-((3bS,4aR)-3-(difluoromethyl)-5,5-difluoro-3b,4,4a,5-tetrahydro-1H-cyclopropa[3,4]cyclopenta[1,2-c]pyrazol-1-yl)acetamide] | 10.24 | > 100 nM |
| Cn1nc(NS(C)(=O)=O)c2c(Cl)ccc(-n3c([C@H](Cc4cc(F)cc(F)c4)NC(=O)Cn4nc(C(F)F)c5c4C(F)(F)[C@@H]4C[C@H]54)nc4nc(OCCC5CC(F)(F)C5)ccc4c3=O)c21 (atropisomer, axis not shown; (P)) [Example 32, N-((S)-1-((3P,3P)-3-(4-chloro-1-methyl-3-(methylsulfonamido)-1H-indazol-7-yl)-7-(2-(3,3-difluorocyclobutyl)ethoxy)-4-oxo-3,4-dihydropyrido[2,3-d]pyrimidin-2-yl)-2-(3,5-difluorophenyl)ethyl)-2-((3bS,4aR)-3-(difluoromethyl)-5,5-difluoro-3b,4,4a,5-tetrahydro-1H-cyclopropa[3,4]cyclopenta[1,2-c]pyrazol-1-yl)acetamide] |  | > 100 nM |
